Results on 1 compound are retold here after patent publication US20240287463A1, “INDUCIBLE TISSUE CONSTRUCTS AND USES THEREOF” (Massachusetts Institute of Technology, priority 2020, published 2024).

Each structure is given as a SMILES string. Some results are limits rather than exact numbers.

In assay [1] the target is T1, inducible caspase-9 (iCasp9) (Homo sapiens, UniProt P55211).
T1 construct: #15567 pMSCV-F-del Casp9.IRES.GFP; host or cells: 3T3-J2 fibroblasts, lentivirally transduced
Put plainly: caspase-9 activation in CID-treated iCasp9-GFP J2 fibroblasts (antibody staining, Caspase-Glo 9). It is filed as cell-based. The source says: Inducible caspase-9 (iCasp9), which is activated by treatment with a small molecule chemical inducer of dimerization (CID; also known as rapalog, an analog of rapamycin) and leads to subsequent cell death through the intrinsic apoptosis pathway was utilized (FIG. 1A). The safety and efficacy of the iCasp9 transgene and CID have previously been shown in vitro and in vivo in animals and humans (A. Di Stasi, et al. (2011) dx.doi.org/10.1056/NEJMoa1106152; T. Gargett and M. P. Brown (2014) Front. Pharmacol. 5; K. C. Straathof, et al. (2005) Blood 105, 4247, each of which is herein incorporated by this reference). To generate inducible cells, 3T3-J2 fibroblasts (‘J2’) were transduced with lentivirus with a bidirectional expression cassette encoding iCasp9 and GFP genes (#15567 pMSCV-F-del Casp9.IRES.GFP; cloned to a lentivirus plasmid backbone with an SFFV promoter). FACS was used to enrich the infected population for the 15% highest-expression GFP+ cells. […] To transfect J2s, virus was added to growth media and cultured overnight. iCasp9-GFP J2 fibroblasts at passage 22 were grown at confluence for 2 weeks to mimic experimental culture conditions, without a decrease in the percentage of the cell population with positive GFP expression. iCasp9-GFP J2s were plated in monolayer and dosed with ethanol vehicle or CID (B/B homodimerizer, AP20187; rapalog; Takara/ClonTech), and then assayed for cell viability using the CellTiter-Glo® Luminescent Cell Viability Assay (Promega), for caspase-9 activation using the CaspGLOW™ Fluorescein Active Caspase-9 Staining Kit (Thermo Fisher Scientific) and Caspase-Glo®9 Assay Systems (Promega), or stained with the Pacific Blue Annexin V/SYTOXTM AADvanced™ Apoptosis Kit (Thermo Fisher) to identify apoptotic cells by flow cytometry (>100,000 cells analyzed per condition).
After iCasp9-GFP J2 fibroblasts were exposed to CID, iCasp9 dimers were detected by staining with a caspase-9 antibody (FIG. 1C). […]

In assay [2] the test system is implanted hepatocyte tissue constructs. The assay can be described thus: human albumin in plasma of mice implanted with hepatocyte/iCasp9-HDF/HUVEC constructs (ELISA). It is filed as in vivo. To be noted: 10 mg/kg on days 5 and 6 post-implantation, plasma at day 7. The method, then: Following the confirmation of vessel maintenance and anastomosis and ability to induce death of implanted fibroblasts in vivo, hepatocyte function was evaluated in implanted hepatocyte tissue constructs. Specifically, mice were implanted with hepatocyte/iCasp9-HDF/HUVEC tissue constructs after in vitro culture for 7 days. Constructs were implanted in mouse fat pads as described above, and treated with 10 mg/kg CID or vehicle on days 5 and 6 post-implantation. At day 7, blood was collected and centrifuged to isolate plasma.
(In an ELISA, binding on a coated surface is turned into a signal by an enzyme label.)

The next assay relates to iCasp9-HLF. Put plainly: HUVEC/iCasp9-HLF tissue constructs implanted in mouse fat pad. Type of assay: in vivo, mice. To be noted: 10 mg/kg intraperitoneally on days 5, 7, 9. The method, then: The ability to successfully transplant the described tissue constructs was assessed in mice. Specifically, engineered tissue constructs consisting of HUVECs and iCasp9-human lung fibroblasts (iCasp9-HLF, see Example 7) were cultured for 7 days in vitro. Constructs were then implanted into the intraperitoneal mesenteric parametrial fat pad of mice. Five days after implantation, mice were injected with 10 mg/kg CID or vehicle intraperitoneally. Mice were dosed again on days 7 and 9. Constructs were collected from mice on day 10 post-implantation. Explants were cryosectioned and imaged to visualize the presence of cells.

The subject of the next assay is iCasp9-GFP J2s. The assay can be described thus: cell viability / removal from monolayer culture (CellTiter-Glo). Type of assay: cell-based. As to conditions: after CID exposure (500 nM, 50 nM, 5 nM in FIG. 1G). An excerpt:
Inducible caspase-9 (iCasp9), which is activated by treatment with a small molecule chemical inducer of dimerization (CID; also known as rapalog, an analog of rapamycin) and leads to subsequent cell death through the intrinsic apoptosis pathway was utilized (FIG. 1A). The safety and efficacy of the iCasp9 transgene and CID have previously been shown in vitro and in vivo in animals and humans (A. Di Stasi, et al. (2011) dx.doi.org/10.1056/NEJMoa1106152; T. Gargett and M. P. Brown (2014) Front. Pharmacol. 5; K. C. Straathof, et al. (2005) Blood 105, 4247, each of which is herein incorporated by this reference). To generate inducible cells, 3T3-J2 fibroblasts (‘J2’) were transduced with lentivirus with a bidirectional expression cassette encoding iCasp9 and GFP genes (#15567 pMSCV-F-del Casp9.IRES.GFP; cloned to a lentivirus plasmid backbone with an SFFV promoter). FACS was used to enrich the infected population for the 15% highest-expression GFP+ cells. […]
After iCasp9-GFP J2 fibroblasts were exposed to CID, iCasp9 dimers were detected by staining with a caspase-9 antibody (FIG. 1C). […] To confirm that CID-triggered caspase-9 activation led to apoptosis, unfixed cells were stained with Annexin V, which binds to an early indicator of apoptosis, and SYTOX, a general marker of cell death, and analyzed by flow cytometry.
A general note: ATP-based viability assays read luminescence as a measure of living cells.

For another assay, the system named is HUVECs. The assay can be described thus: vascular network in HUVEC/iCasp9-HLF microfluidic devices after fibroblast removal. Type of assay: cell-based, human. To be noted: iCasp9-HLFs removed after only 3 days of co-culture.

T1 sequence (P55211 with tags, fused parts or gaps limits assumed): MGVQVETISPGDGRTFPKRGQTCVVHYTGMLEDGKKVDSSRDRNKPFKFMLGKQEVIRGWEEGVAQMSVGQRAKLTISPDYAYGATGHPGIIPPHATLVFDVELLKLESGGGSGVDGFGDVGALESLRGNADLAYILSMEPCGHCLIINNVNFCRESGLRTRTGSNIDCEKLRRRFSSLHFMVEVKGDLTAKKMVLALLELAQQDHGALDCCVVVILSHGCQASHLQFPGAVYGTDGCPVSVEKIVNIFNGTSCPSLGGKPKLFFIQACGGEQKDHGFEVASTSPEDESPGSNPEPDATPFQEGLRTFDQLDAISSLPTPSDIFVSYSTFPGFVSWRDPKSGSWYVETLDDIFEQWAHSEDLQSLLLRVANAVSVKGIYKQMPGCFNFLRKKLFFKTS

With `CC[C@H](C(=O)N1CCCC[C@H]1C(=O)O[C@H](CCc1ccc(OC)c(OC)c1)c1cccc(OCC(=O)NCC(CNC(=O)COc2cccc([C@@H](CCc3ccc(OC)c(OC)c3)OC(=O)[C@@H]3CCCCN3C(=O)[C@@H](CC)c3cc(OC)c(OC)c(OC)c3)c2)CN(C)C)c1)c1cc(OC)c(OC)c(OC)c1` [CID, AP20187], in assay [1] (50 nM CID, collected 15 and 30 minutes after treatment), the Caspase-9 staining entry is “increased”. The entries for the “caspase-9 cleavage compared to wild-type J2s” value in assay [1] (15 minutes after CID dosing) and in assay [1] (30 minutes after CID dosing) were 16 fold and 18 fold, respectively. Moreover, the “human albumin secretion compared to vehicle control and in vitro CID treated constructs” value in assay [2] was “similar”. The “integration of engineered vessels with host vessels (anti-TER119)” value in the assay with iCasp9-HLF (collected day 10) is on record as “demonstrated vessel integration”. The “iCasp9-HLF in explants compared to vehicle treated mice” value in the assay with iCasp9-HLF (collected day 10 post-implantation) is recorded as “reduction”. Further, the “time to efficient removal from culture” value in the assay with iCasp9-GFP J2s was no more than 1 h. Further, the “self-assembly of HUVECs at day 7” value with HUVECs was “able to self-assemble into perfusable vasculature”.
